Measurements reported in article PMC8694143 (Microbiology Spectrum, 2021).
No end group written: not given here.

Columns and labels:
[1] = tested on: S. aureus bovid isolate (RDM-1); assay: MIC determination in broth; type: cell-based, Staphylococcus aureus; conditions: clinical isolate, mastitis in a dairy cow; MH broth
Procedure: (§1) The MICs were measured for bioactive peptides identified from the initial screen. Cation-adjusted Mueller-Hinton (MH) broth was used as the growth medium for MIC determination experiments. Bacterial cultures were diluted to an OD of 5 × 10^−4 (∼10^5 CFU/mL) in 200 μL MH broth mixed with peptides in a 2-fold dilution series arrayed in 96-well plates. Plates were incubated without shaking at 30 or 37°C depending on the organism.

[2] = tested on: MRSA ATCC 33592, ATCC 1683 and S. pseudintermedius SPC002; assay: Bactericidal activity time course, short intervals; type: cell-based, Staphylococcus aureus; Staphylococcus pseudintermedius; conditions: 2× MIC, MH broth, 37°C
Procedure: Time-dependent inhibition of pathogens was measured using standing bacterial cultures treated with 2× MIC. Overnight cultures were diluted to 10^4 or 10^7 CFU/mL in 2 mL of MH broth supplemented with the appropriate peptide concentration or sterile water as a control. Standing cultures were then incubated at 37°C and 100 μL aliquots were removed at specified time intervals. For the panel of 7 MRSA strains, treatment intervals of 30 min, 4 h, 8 h, and 24 h were used. For MRSA ATCC 33592, ATCC 1683, and S. pseudintermedius SPC002, shorter intervals included 5, 30, 60, 120, 240, and 360 min. The 100-μL aliquots were plated using serial dilutions as necessary on LB agar, and CFU were counted as a measure of bacterial viability after 24 h. To normalize cell viability data, surviving cells in CFU/mL were compared to the initial bacterial inoculum of each strain and then expressed as a percentage of that concentration. All experiments were performed in triplicate with values reported as the mean with standard deviations. Statistical differences in the observed viability of bacteria treated with STIP3-29 were analyzed using a paired two-tailed Student’s t test comparing the pretreatment (0 h) viability to those observed at posttreatment time points using Stata v17.0 software.

[3] = tested on: MRSA ATCC 33592 on 3D EpiDerm skin tissues; assay: Three-dimensional NHEK skin model of MRSA infection; type: cell-based, Staphylococcus aureus; conditions: 25 μg/mL (4× MIC), 100 μL apical, 16 h after 4 h colonization, 37°C, 5% CO2
Procedure: 3D EpiDerm skin tissues (MatTek EPI-200-AFAB; antifungal and antibiotic-free; 9 mm) contained within a plastic insert lined with a permeable 0.4 μm membrane were transferred to 12-well plates containing antibiotic assay medium (600 μL/well). A fresh MRSA ATCC 33592 culture in the log phase of growth was centrifuged at 10,000 rpm for 5 min to harvest bacterial cells before resuspension in sterile PBS to an […] 5 × 10^6 CFU/mL. Tissues were incubated with 100 μL of the bacterial cell suspension (5 × 10^5 CFU) for 4 h at 37°C in a humidified 5% CO2 environment. After 4 h, the bacterial cell suspension was removed and the apical surface of each tissue was washed 3 times with PBS to remove nonadherent bacterial cells. Next, the colonized skin tissues were treated with a 100 μL volume of STIP3-29 at 25 μg/mL. An equal volume of sterile PBS was used for untreated control experiments. Tissues were then incubated at 37°C in a humidified 5% CO2 environment for 16 h. […] The number of MRSA colonies on each plate was counted and an average CFU/mL was determined for treated and untreated samples. […] The statistical differences in colonization were evaluated using an unpaired two-tailed Student’s t test to compare pretreated (control colonization; CC), untreated control (PBS), and STIP3-29 treated groups.

M. luteus ATCC 4698 = assay: MIC determination in broth; type: cell-based, Micrococcus luteus
MRSA 33592 = assay: Transmission electron microscopy; type: cell-based, Staphylococcus aureus; conditions: 25 μg/mL, PBS, 37°C
Procedure: Samples for TEM imaging were prepared by diluting MRSA 33592 cultures to an OD of 0.5 in PBS before the cell suspension was treated with 25 μg/mL STIP3-29. Treated and untreated cells were incubated at 37°C. Treated samples were prepared from imaging after 30 min and 4 h of treatment. An untreated control sample was prepared after a 4 h incubation period. Cells from the distinct time points or treatments were harvested by centrifugation, fixed for 4 h using 2% glutaraldehyde, postfixed for 1 h with 1% OsO4, dehydrated with a graded ethanol series, embedded in Epon, and en bloc stained with saturated uranyl acetate in 70% ethanol prior to sectioning. Imaging was performed using a Hitachi HT7700 instrument.

S. equorum = assay: MIC determination in broth; type: cell-based, Staphylococcus equorum; conditions: isolate from the healthy quarter of a dairy cow; MH broth
Procedure: as §1

MRSA ATCC BAA-44 = assay: MIC determination in broth; type: cell-based, Staphylococcus aureus; conditions: STIP3 variants, highest conc. tested 100 μg/mL; cation-adjusted MH broth, ~10^5 CFU/mL, 2-fold dilution series, 37°C, 16 h
How it was run: (§2)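 MIC read after unshaken incubation at 37°C of bacteria (∼10^5 CFU/mL, OD 5 × 10^−4) with twofold peptide dilutions in cation-adjusted MH broth.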

MRSA ATCC BAA-2094 = assay: MIC determination in broth; type: cell-based, Staphylococcus aureus; conditions: STIP3 variants, highest conc. tested 100 μg/mL; cation-adjusted MH broth, ~10^5 CFU/mL, 2-fold dilution series, 37°C, 16 h
How it was run: as §2

MRSA ATCC 33592 = assay: MIC determination in broth; type: cell-based, Staphylococcus aureus
How it was run: as §2

MRSA ATCC BAA-2313 = assay: MIC determination in broth; type: cell-based, Staphylococcus aureus; conditions: STIP3 variants, highest conc. tested 100 μg/mL; cation-adjusted MH broth, ~10^5 CFU/mL, 2-fold dilution series, 37°C, 16 h
How it was run: as §2

For TVGGLVKWILKTVKKFA-NH2 [STIP3-29], which “MIC, S. aureus bovid isolate (RDM-1)” value [1] is on record?
Its value is 6.25 µg/mL.

What about the “Viability within 5 min of treatment” value ([2]; 5 min, all three strains, normalized to the starting cell count) of the same substance?
The value was at most 40%.

What about the “Recovery of viable bacteria after 2 h of treatment” value ([2]; 2 h, detection limit 10 CFU/mL) of the same substance?
Its value is “inability to recover viable bacteria”.

And the “Effect on the MRSA population on colonized NHEK tissue” value [3]?
The value was “prevented the expansion of the MRSA population”.

What about the “MIC, M. luteus” value (M. luteus ATCC 4698; cation-adjusted MH broth, ~10^5 CFU/mL, 30°C, 48 h) of the same substance?
The value was 1.56 µg/mL.

What about the “MIC, M. luteus, molar” value (M. luteus ATCC 4698; conversion of 1.56 μg/mL) of the same substance?
Its value is 0.85 µM.

What about the “Peptide-induced lysis by TEM, 30 min” value (MRSA 33592; 30 min) of the same substance?
Its value is “No peptide-induced lysis was observed”.

What about the “Peptide-induced lysis by TEM, 4 h” value (MRSA 33592; 4 h) of the same substance?
Its value is “evidence was present”.

What about the “MIC, S. equorum” value (S. equorum) of the same substance?
Its value is 3.13 µg/mL.

And the “MIC, S. aureus ATCC BAA 44 (SCCmec I)” value (MRSA ATCC BAA-44)?
The value was 6.25 µg/mL.

What about the “MIC, S. aureus ATCC BAA 2094 (SCCmec V)” value (MRSA ATCC BAA-2094) of the same substance?
The value was 6.25 µg/mL.

And the “Improvement to antibiotic activity relative to STIP3-1” value (MRSA ATCC 33592; S. aureus ATCC 29213 and MRSA panel MICs)?
Its value is 16 fold.

And the “MIC (μg/mL) for MRSA ATCC 33592” value (MRSA ATCC 33592; Table 1 and text, cation-adjusted MH broth, ~10^5 CFU/mL, 37°C, 16 h)?
The value was 6.25 µg/mL.

What about the “MIC, S. aureus ATCC 33592 (SCCmec III)” value (MRSA ATCC 33592; Table S5, STIP3 variants, highest conc. tested 100 μg/mL, cation-adjusted MH broth, ~10^5 CFU/mL, 2-fold dilution series, 37°C, 16 h) of the same substance?
The value was 6.25 µg/mL.

What about the “MIC for MRSA, molar” value (MRSA ATCC 33592; conversion of 6.25 μg/mL) of the same substance?
The value was 3.3 µM.

And the “MIC, S. aureus ATCC BAA 2313 (SCCmec XI)” value (MRSA ATCC BAA-2313)?
The value was 6.25 µg/mL.
